Consider eight compounds from patent US9409952B2, “Peptide-compound cyclization method” (Chugai Seiyaku Kabushiki Kaisha, priority 2011, dated 2016).

Starred links: 1 amine or outer side, 2 acyl side, 3 side chain; linkers in the order of their positions; H or OH if unused. Positions of bridges follow the written chain, without caps; N, C: chain ends. Non-standard residues stand in square brackets, D forms with d. Residues, ends and D or L forms follow the SMILES beside them. *: point of attachment. Phe(4-(CH2)5CO) = O=C([C@H](Cc1ccc(CCCCCC(=O)[*:3])cc1)N[*:1])[*:2]; NMeF = CN[C@@H](Cc1ccccc1)C(=O)O; NMeI = CC[C@H](C)[C@H](NC)C(=O)O; NMeL = CN[C@@H](CC(C)C)C(=O)O; NMeV = CN[C@H](C(=O)O)C(C)C; NMeA = CN[C@@H](C)C(=O)O; Piperidide = C1CCN(*)CC1; Sar = CNCC(=O)O

This data set is described as follows: Metabolic stability in human hepatic microsome. The conditions noted are these: microsomes, pH 7.4; human hepatic microsome, NADPH(+); read-out: CL NADPH(+). The class given is in vitro ADME.
For `C=C1CCC(=O)N[C@@H](C(C)C)C(=O)N(C)[C@@H](C)C(=O)N(C)[C@@H](CC(C)C)C(=O)N[C@@H](CC(C)C)C(=O)N[C@@H](Cc2ccccc2)C(=O)N(C)[C@@H](Cc2ccccc2)C(=O)N[C@@H]([C@@H](C)CC)C(=O)N2CCC[C@H]2C(=O)N[C@@H]([C@@H](C)O)C(=O)N(C)[C@@H](CC(C)C)C(=O)N[C@H](C(=O)N2CCCCC2)Cc2cccc1c2` [DP-884], the microsomal CLint at 1 uM came out at 64 µL/min/mg.
In the case of `C=C1CCC(=O)N[C@@H](CC(C)C)C(=O)N[C@@H](C(C)C)C(=O)N(C)[C@@H](CC(C)C)C(=O)N[C@@H](Cc2ccccc2)C(=O)N(C)[C@@H](Cc2ccccc2)C(=O)N[C@@H]([C@@H](C)CC)C(=O)N(C)[C@@H](C)C(=O)N[C@@H](CC(C)C)C(=O)N[C@@H]([C@@H](C)O)C(=O)N[C@H](C(=O)N2CCCCC2)Cc2cccc1c2` [DP-890] it was 47 µL/min/mg; in that of `CC[C@H](C)[C@@H]1NC(=O)[C@H](Cc2ccccc2)N(C)C(=O)[C@H](Cc2ccccc2)NC(=O)[C@H](CC(C)C)N(C)C(=O)[C@H](C(C)C)NC(=O)[C@H](CC(C)C)NC(=O)[C@H](C)N(C)C(=O)CNC(=O)CCCCCc2ccc(cc2)C[C@@H](C(=O)N2CCCCC2)NC(=O)[C@H]([C@@H](C)O)NC(=O)[C@H](CC(C)C)NC(=O)[C@H](C)N(C)C1=O` [DP-891] (G[NMeA]LV[NMeL]F[NMeF]I[NMeA]LT[Phe(4-(CH2)5CO)]-Piperidide; lactam N-12), 100 µL/min/mg; in that of `CC[C@H](C)[C@@H]1NC(=O)[C@H](Cc2ccccc2)N(C)C(=O)[C@H](Cc2ccccc2)NC(=O)[C@H](CC(C)C)N(C)C(=O)[C@H](C(C)C)NC(=O)[C@H](CC(C)C)NC(=O)CCCCCc2ccc(cc2)C[C@@H](C(=O)N2CCCCC2)NC(=O)[C@H]([C@@H](C)O)NC(=O)[C@H](CC(C)C)NC(=O)[C@H](C)N(C)C1=O` [DP-892] (LV[NMeL]F[NMeF]I[NMeA]LT[Phe(4-(CH2)5CO)]-Piperidide; lactam N-10), 57 µL/min/mg.
In the case of `CC[C@H](C)[C@H]1C(=O)N[C@@H](Cc2ccccc2)C(=O)N(C)[C@@H](Cc2ccccc2)C(=O)N[C@@H]([C@@H](C)O)C(=O)N2CCC[C@H]2C(=O)N[C@@H](CC(C)C)C(=O)N[C@H](C(=O)N2CCCCC2)Cc2ccc(cc2)CCCCCC(=O)N[C@@H](C(C)C)C(=O)N(C)CC(=O)N[C@@H](CC(C)C)C(=O)N(C)[C@@H](CC(C)C)C(=O)N[C@@H](C)C(=O)N1C` [DP-895] (V[Sar]L[NMeL]A[NMeI]F[NMeF]TPL[Phe(4-(CH2)5CO)]-Piperidide; lactam N-12) it was 54 µL/min/mg.
In the case of `C=C1CCC(=O)N[C@@H](CC(C)C)C(=O)N[C@@H](Cc2ccccc2)C(=O)N[C@@H]([C@@H](C)O)C(=O)N[C@@H](CC(C)C)C(=O)N(C)[C@@H](C)C(=O)N[C@@H](Cc2ccccc2)C(=O)NCC(=O)N[C@@H](C(C)C)C(=O)N[C@@H](CC(C)C)C(=O)N[C@@H](C)C(=O)N(C)[C@@H](CC(C)C)C(=O)N[C@H](C(=O)N2CCCCC2)Cc2ccc1cc2` [DP-898] it was 21 µL/min/mg; in that of `C=C1CCC(=O)N[C@@H](C(C)C)C(=O)N(C)[C@@H](CC(C)C)C(=O)N(C)CC(=O)N(C)[C@@H](CC(C)C)C(=O)N(C)[C@@H]([C@@H](C)CC)C(=O)N[C@@H](C)C(=O)N(C)[C@@H](Cc2ccccc2)C(=O)N(C)[C@@H](Cc2ccccc2)C(=O)N[C@@H]([C@@H](C)O)C(=O)N(C)[C@@H](CC(C)C)C(=O)N2CCC[C@H]2C(=O)N[C@H](C(=O)N2CCCCC2)Cc2cccc1c2` [DP-899], 32 µL/min/mg; in that of `CC[C@H](C)[C@@H]1NC(=O)[C@H](Cc2ccccc2)N(C)C(=O)[C@H](CC(C)C)N(C)C(=O)[C@H](CC(C)C)NC(=O)[C@H](C)NC(=O)[C@H](C(C)C)N(C)C(=O)CNC(=O)CCCCCc2ccc(cc2)C[C@@H](C(=O)N2CCCCC2)NC(=O)[C@H](CC(C)C)N(C)C(=O)[C@H]([C@@H](C)O)NC(=O)[C@@H]2CCCN2C(=O)[C@H](Cc2ccccc2)NC1=O` [DP-902] (G[NMeV]AL[NMeL][NMeF]IFPT[NMeL][Phe(4-(CH2)5CO)]-Piperidide; lactam N-12), 121 µL/min/mg.
